Assay results taken from patent US5603949A, “Use of a tocopherol phosphate or one of its derivatives, for the preparation of cosmetic or pharmaceutical compositions and compositions so obtained” (LVMH Recherche, priority 1991, dated 1997).
Counter-ions that a name gives are not always drawn.

Target: T1, phospholipase A2 (Rattus norvegicus, UniProt P14423)
T1 construct: The phospholipase A2 is isolated from the peritoneal cavity of a rat; from tissue; host or cells: peritoneal cavity of a rat
T1 sequence (P14423 22-146): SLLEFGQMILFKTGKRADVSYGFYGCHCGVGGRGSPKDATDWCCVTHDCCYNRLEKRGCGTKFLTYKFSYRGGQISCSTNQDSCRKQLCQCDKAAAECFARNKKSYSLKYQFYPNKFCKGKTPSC
Experiment: inhibition of phospholipase A2 (PLA2): release of 14C-labeled fatty acid from phosphatidylethanolamine
Type: biochemical
Settings: PLA2 isolated from peritoneal cavity of a rat; 0.1M Tris-HCl, pH=9, Ca++; 20 min preincubation, then 20 min with substrate, 37° C.; read-out: 50% inhibitory concentration (IC50) (converted)
Description: The inhibition of phospholipase A2, which is involved in the production of allergy and inflammation mediators, especially in the inflammatory reaction of skin allergies, is measured according to the protocol described by H. W. Chang, I. Kudo, M. Tomita and K. Inoue in J. Biochem. (Tokyo) 102(1): 147-154 (1987).
The phospholipase A2 is isolated from the peritoneal cavity of a rat. PLA2 hydrolyzes the ester linkage in the 2-position of the glycerol of a phosphatidylethanolamine, this position being occupied by a fatty acid residue labeled with carbon 14. The radioactive fatty acid released will be extracted and then quantitatively analyzed by liquid scintillation. In the presence of the PLA2 inhibitor, this hydrolysis will be reduced and less released fatty acid will therefore be determined.
In practice, the PLA2 and the test product are placed in a 0.1M Tris-HCl buffer, pH=9, containing 4 mmol of Ca^++ and the mixture is incubated for 20 min at 37° C., with agitation. After this contact time, the labeled phosphatidylethanolamine is added and incubation is continued for 20 min at 37° C., with agitation, to allow the hydrolysis of this substrate. n-Heptane is then used to extract the labeled fatty acid released during the hydrolysis, the latter then being quantitatively analyzed by liquid scintillation. […]

Compound: Cc1cc(OP(=O)(O)O)cc2c1OC(C)(CCCC(C)CCCC(C)CCCC(C)C)CC2 (stereo not shown) [disodium salt of delta-tocopherol phosphate]
- IC50: 20.7 µM
